# Laboratory results reported in US6083981A, “Sulfonamide substituted aspartic acid interleukin-1β converting enzyme inhibitors” (Warner-Lambert Company, priority 1999, dated 2000).
# Experiments:
# ICE [1] = molecular target: T1, ICE (Homo sapiens, UniProt P29466); assay: ICE inhibition, fluorometric Ki (Ac-Tyr-Val-Ala-Asp-AMC substrate); type: biochemical; conditions: 0.24 nM ICE, 15 μM Ac-Tyr-Val-Ala-Asp-AMC, reversible competitive model
# T1 sequence (P29466 120-297 limits assumed): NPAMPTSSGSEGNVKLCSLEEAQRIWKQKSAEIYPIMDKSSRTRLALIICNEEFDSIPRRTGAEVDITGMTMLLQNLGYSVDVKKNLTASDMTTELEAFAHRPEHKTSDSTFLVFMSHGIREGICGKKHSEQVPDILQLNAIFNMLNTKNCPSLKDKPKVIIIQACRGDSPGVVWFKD
# T1 sequence (P29466 317-404 limits assumed): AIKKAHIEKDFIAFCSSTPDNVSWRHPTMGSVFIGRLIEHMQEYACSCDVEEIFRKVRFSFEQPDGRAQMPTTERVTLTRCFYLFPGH
# Description: Substrate hydrolysis is monitored for 300 seconds by observing the fluorescence of released AMC using excitation at 380 nm and emission at 460 nm. Mean rates of substrate hydrolysis are evaluated by linear-regression analysis of the fluorescence vs time traces.
# ICE [2] = molecular target: T1, ICE; assay: ICE Colorimetric Dose-Response (IC50) Assay; type: biochemical; conditions: 24 nM ICE, 60 min preincubation, 50 μM Ac-Tyr-Val-Ala-Asp-pNA, pH 7.5, 25° C
# Description: Aliquots of each dilution are transferred to a microtitre plate in triplicate.
# (§1) ICE enzyme is diluted to approximately 24 nM in HGE buffer (100 mM Hepes pH 7.5, 0.5 mM EDTA, 20% glycerol, 0.1% Bovine Serum Albumin (BSA), and activated by adding dithiothreitol (DTT) to a final concentration of 5 mM. The activated enzyme is then aliquoted into wells containing inhibitor or vehicle, and the plate is preincubated for 60 minutes at ambient temperature. Substrate (Ac--Tyr--Val--Ala--Asp--pNA) is added to each well to a final concentration of 50 μM, and plates are placed in the microtitre plate-reader thermostated to 25° C. Beginning 5 minutes after addition of substrate, absorbance (405 nm) of wells is monitored for 1 hour, and activity is calculated as the mean rate of change in absorbance during this interval.
# [3] = system: IL-1β production in human peripheral blood mononuclear cells (PBMCs); assay: PBMC Cellular Assay, inhibition of LPS-stimulated IL-1β production; type: cell-based; conditions: PBMC; mature IL-1β by ELISA, 10 ng/mL LPS overnight, 2% human AB serum
# Text: (§2) Further evidence that compounds of Formula I, II, and III are inhibitors of ICE is provided by their ability to inhibit IL-1β production in human peripheral blood mononuclear cells (PBMCs) as described herein. PBMCs are isolated from heparinized blood by centrifugation over a ficoll cushion, then washed three times with phosphate-buffered saline. PBMCs are suspended in a medium containing RPMI 1640 with glutamine, penicillin, streptomycin, and 2% human AB serum, then plated at 10^6 cells per well in 96 well flat bottom plates. PBMCs are stimulated overnight with 10 ng/mL of lipopolysaccharide (LPS, E. Coli strain 0111:B4; Calbiochem) in the presence or absence of a compound of Formula I. Medium is harvested and the level of mature IL-1β was determined using an ELISA kit from R & D Systems. Compound inhibition is assessed by determining the concentration of agent which reduces IL-1β levels by 50%. Cells were cultured for an additional four hours in the presence of 3-(4,5-dimethylthiazol-2-yl)-2,5-diphenyltetrazolium bromide (MTT) to determine viability. Compound toxicity can, therefore, be assessed by determining the concentration of agent which kills 50% of the cells (IC50).
# [4] = PBMC viability (MTT), compound toxicity; type: cell-based; conditions: human, MTT viability, additional four hours, concentration which kills 50% of the cells, read-out: PBMC TC50
# Text: as §2
# Ich-2 (Caspase-4) = molecular target: T2, Ich-2 (Caspase-4) (Homo sapiens, UniProt P49662); assay: Ich-2 (Caspase-4) Colorimetric Dose-Response (IC50) Assay; type: biochemical; conditions: 64 nM enzyme, 60 μM Ac-Leu-Glu-Val-Asp-pNA
# T2 sequence (P49662 81-270 limits assumed): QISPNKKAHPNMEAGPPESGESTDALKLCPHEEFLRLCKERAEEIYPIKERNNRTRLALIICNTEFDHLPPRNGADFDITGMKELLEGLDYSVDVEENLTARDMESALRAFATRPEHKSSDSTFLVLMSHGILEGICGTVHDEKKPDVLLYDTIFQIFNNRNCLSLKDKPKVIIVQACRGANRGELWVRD
# T2 sequence (P49662 290-377 limits assumed): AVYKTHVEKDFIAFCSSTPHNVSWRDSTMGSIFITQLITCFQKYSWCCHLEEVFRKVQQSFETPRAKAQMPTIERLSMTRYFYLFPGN
# Description: as §1
# Inhibition of Ich-2 enzyme is assayed as described above for ICE, except that enzyme is used at 64 nM, and 60 μM of the Ich-2-specific substrate Ac--Leu--Glu--Val--Asp--pNA is used instead of the ICE substrate Ac--Tyr--Val--Ala--Asp--pNA.
Ki (ICE [1]) [µM],IC50 (ICE [2]) [µM],IC50 (Ich-2 (Caspase-4)) [µM],Compound,IC50 [3] [µM],CC50 [4] [µM]
31,37,341,"Cc1cccc(-c2ccccc2S(=O)(=O)NC(C=O)CC(=O)O)c1 (stereo not shown) [Example 35, 3-(3'-Methyl-Biphenyl-2-Sulfonylamino)-4-Oxo-Butyric Acid]",> 100,> 100
1.3,5.8,42,"O=CC(CC(=O)O)NS(=O)(=O)c1ccccc1Oc1ccc2c(c1)CCCC2 (stereo not shown) [Example 16, 4-Oxo-3-[2-(5,6,7,8-Tetrahydro-Naphthalen-2-Yloxy)-Benzenesulfonylamino]-Butyric Acid]",65,> 100
1.5,12,9.2,"Cc1cccc(S(=O)(=O)NC(C=O)CC(=O)O)c1Oc1ccc(C(C)C)cc1 (stereo not shown) [Example 41, 3-[2-(4-Isopropylphenoxy)-3-Methylbenzenesulfonylamino]-4-Oxo-Butyric Acid]",45,> 100
0.3,1.1,57,"Cc1ccccc1Oc1c(C)cccc1S(=O)(=O)NC(C=O)CC(=O)O (stereo not shown) [Example 42, 3-[2-(2-Methylphenoxy)-3-Methylbenzenesulfonylamino]-4-Oxo-Butyric Acid]",38,> 100
31,110,602,"O=CC(CC(=O)O)NS(=O)(=O)c1cccc2ccccc12 (stereo not shown) [Example 34, 3-(Naphthalene-1-Sulfonylamino)-4-Oxo-Butyric Acid]",,
1.9,34,151,"Cc1cccc(S(=O)(=O)NC(C=O)CC(=O)O)c1-c1ccccc1 (stereo not shown) [Example 37, 3-(6-Methyl-Biphenyl-2-Sulfonylamino)-4-Oxo-Butyric Acid]",> 100,> 100
,7.8,23,"Cc1cc(Oc2ccccc2S(=O)(=O)NC(C=O)CC(=O)O)cc(C)c1C (stereo not shown) [Example 26, 4-Oxo-3-[2-(3,4,5-Trimethyl-Phenoxy)-Benzenesulfonylamino]-Butyric Acid]",58,> 100
7.7,99,1970,"O=CC(CC(=O)O)NS(=O)(=O)c1ccccc1OCC1CCCO1 (stereo not shown) [Example 43, 4-Oxo-3-[2-(Tetrahydro-Furan-2-Ylmethoxy)-Benzenesulfonylamino]-Butyric Acid]",,
,1,76,"Cc1cc(Oc2ccccc2S(=O)(=O)NC(C=O)CC(=O)O)ccc1C(C)C (stereo not shown) [Example 22, 3-[2-(4-Isopropyl-3-Methyl-Phenoxy)-Benzenesulfonylamino]-4-Oxo-Butyric Acid]",25,> 100
7,32,167,"O=CC(CC(=O)O)NS(=O)(=O)c1ccccc1CCc1ccccc1 (stereo not shown) [Example 13, 4-Oxo-3-(2-Phenethyl-Benzenesulfonylamino)-Butyric Acid]",,
1,13,122,"Cc1cccc(Oc2ccccc2S(=O)(=O)NC(C=O)CC(=O)O)c1C (stereo not shown) [Example 24, 3-[2-(2,3-Dimethyl-Phenoxy)-Benzenesulfonylamino]-4-Oxo-Butyric Acid]",73,> 100
0.8,11,97,"O=CC(CC(=O)O)NS(=O)(=O)c1ccccc1OCc1ccccc1 (stereo not shown) [Example 23, 3-(2-Benzyloxy-Benzenesulfonylamino)-4-Oxo-Butyric Acid]",60,> 100
7,,77,"O=CC(CC(=O)O)NS(=O)(=O)c1ccccc1-c1cccc2ccccc12 (stereo not shown) [Example 33, 3-(2-Naphthalen-1-yl-Benzenesulfonylamino)-4-Oxo-Butyric Acid]",,
2.2,41,199,"Cc1ccc(Oc2ccccc2)c(S(=O)(=O)NC(C=O)CC(=O)O)c1 (stereo not shown) [Example 44, 3-(5-Methyl-2-Phenoxy-Benzenesulfonylamino)-4-Oxo-Butyric Acid]",> 100,> 100
6.8,86.8,259,"O=C[C@H](CC(=O)O)NS(=O)(=O)c1ccccc1 [Example 2, 3-Benzenesulfonylamino-4-Oxo-Butyric Acid]",> 100,
,24,52,"O=CC(CC(=O)O)NS(=O)(=O)c1ccccc1Oc1ccccc1 (stereo not shown) [Example 4, 4-Oxo-3-(2-Phenoxy-Benzenesulfonylamino)-Butyric Acid]",,
10,130,525,"O=CC(CC(=O)O)NS(=O)(=O)c1ccccc1[N+](=O)[O-] (stereo not shown) [Example 46, 3-(2-Nitro-Benzenesulfonylamino)-4-Oxo-Butyric Acid]",,
,10.8,33,"Cc1cccc(Oc2ccccc2S(=O)(=O)N[C@H](C=O)CC(=O)O)c1 [Example 7, 4-Oxo-3-(2-m-Tolyloxy-Benzenesulfonylamino)-Butyric Acid]",67.5,> 100
,3.5,6.5,"CCC(CC)c1ccc(Oc2ccccc2S(=O)(=O)NC(C=O)CC(=O)O)cc1 (stereo not shown) [Example 25, 3-{2-[4-(1-Ethyl-Propyl)-Phenoxy]-Benzenesulfonylamino}-4-Oxo-Butyric Acid]",27,> 100
6.4,66.2,109,"Cc1ccc(-c2ccccc2S(=O)(=O)NC(C=O)CC(=O)O)cc1 (stereo not shown) [Example 9, 3-(4'-Methyl-Biphenyl-2-Sulfonylamino)-4-Oxo-Butyric Acid]",,
7,28,603,"Cc1ccccc1-c1ccccc1S(=O)(=O)NC(C=O)CC(=O)O (stereo not shown) [Example 32, 3-(2'-Methyl-Biphenyl-2-Sulfonylamino)-4-Oxo-Butyric Acid]",,
,8.8,18,"Cc1ccc(Oc2ccccc2S(=O)(=O)N[C@H](C=O)CC(=O)O)cc1 [Example 5, 4-Oxo-3-(2-p-Tolyloxy-Benzenesulfonylamino)-Butyric Acid]",67.5,> 100
3.7,37,70,"O=C[C@H](CC(=O)O)NS(=O)(=O)c1ccccc1Cc1ccccc1 [Example 3, 3-(2-Benzyl-Benzenesulfonylamino)-4-Oxo-Butyric Acid]",,
17,55,569,"CCCC(C)C(=O)Nc1ccccc1S(=O)(=O)N[C@H](C=O)CC(=O)O (stereo partly shown) [Example 11, 3-[2-(2-Methyl-Pentanoylamino)-Benzenesulfonylamino]-4-Oxo-Butyric Acid]",,

Compound,Ki (ICE [1]) [µM],IC50 (ICE [2]) [µM],IC50 (Ich-2 (Caspase-4)) [µM],IC50 [3] [µM],CC50 [4] [µM]
"CC(C)COc1ccccc1S(=O)(=O)NC(C=O)CC(=O)O (stereo not shown) [Example 10, 3-(2-Isobutoxy-Benzenesulfonylamino)-4-Oxo-Butyric Acid]",4.2,22,318,90,> 100
3-(2-Methylbutoxy-Benzenesulfonylamino)-4-Oxo-Butyric Acid [Example 30],4.2,37,221,,
